SMILES strings stand for the structures.

For the assay, the system named is 6-OHDA lesioned mice. Description: Unilateral striatal 6-OHDA mouse model, neurorestoration experiment (behaviour and post-mortem). Type of assay: in vivo, C57BL/6 mice. On the procedure:
Young adult (9-week old, 25 grams) male C57BL/6 mice were purchased from Charles River Laboratories (Montréal, QC, Canada). Animals were housed 4 per cage under standard conditions with free access to food and water, randomized and handled under the same conditions by one investigator. All experiments were performed in accordance with the Canadian Council on Animal Care and were approved by the Institutional Committee of the Centre Hospitalier de l'Université Laval (CHUL). Throughout the experiment, the health status of all mice included in the study was closely monitored for weight loss or other signs of health-related issues. All efforts were made to minimize animal pain and discomfort.
This protocol was based on the unilateral stereotaxic intra-striatal injection of 6-hydroxydopamine (6-OHDA). Intrastriatal administration of 6-OHDA creates a progressive and retrograde degenerative changes in DA neurons of the substantia nigra (Bjorklund et al., 1997; Costantini et al., 2001). Mice were anaesthetized using isoflurane and placed onto a stereotactic frame adapted for mice. 6-OHDA was dissolved at a concentration of 2 μg/μl in 0.9% saline and 0.02% ascorbic acid and 2 μl was injected in the right striatum at a rate of 0.5 μl/min. The needle was left in place for 3 min after the injection before retraction. The injection was performed using an Hamilton syringe according to the stereotaxic co-ordinates: AP: +0.04 cm, ML: −0.18 cm, DV: −0.31 cm (corresponding to the atlas of Allan P. 2008).
To serve as controls, other mice were subjected to the same surgical procedures, but only 2 μl of solvent (0.9% saline and 0.02% ascorbic acid) was injected in the same coordinates. The study was further divided into 2 distinct experiments: • 1) The neurorescuing effects of cystamine (cystamine dihydrochloride, Sigma, St. Louis, Mo.) in 6-OHDA leisoned mice. For this experiment, the first i.p. injection of 10 mg/kg cystamine was administered 3 days post surgery and the treatment continued daily for 14 days. • 2) The neurorestorative effects of cystamine (cystamine dihydrochloride, Sigma, St. Louis, Mo.) in 6-OHDA lesioned mice. The treatment of cystamine began 3 weeks post surgery, when the dopaminergic (DAergic) lesion is known to be stable and has reached its peak. The treatment was continued daily for 6 weeks.
The effects of cystamine on the 6-OHDA toxicity were studied in the following experimental groups: Group I, Sham+Saline; Group II, 6-OHDA+Saline; Group III; Sham+Cystamine; Group IV, 6-OHDA+Cystamine. In total, 40 mice (n=10 per group) were utilized for each experiment, monitored daily for weight variation, and ultimately sacrificed by perfusion 24 hrs after the last cystamine (or vehicle) injection.
Animals were sacrificed under deep anesthesia with ketamine/xylazine (Vetalar, Bioniche, Belleville, ON/Rompun, Bayer, Toronto, ON). All mice were subjected to intracardiac perfusion with RNAse free 0.1 M phosphate-buffered saline (PBS). After intracardiac perfusion, brains were collected and the posterior brain of each mice, comprising the entire mesencephalon, was post-fixed in 4% PFA for additional immunohistochemistry and in situ hybridization analyses. The anterior brain, comprising the right and left striatum, was snap-frozen and used for HPLC and WB analyses.
Catecholamine quantification by HPLC, TH immunohistochemistry and in situ hybridization for Nurr1 and DAT were conducted as described in Example 1.
The loss of DAergic neurons was determined by stereological counts of TH-immunoreactive cells (identifiable somas) under bright-field illumination. Every 10th section through the SNc was analyzed using Stereo investigator software (MicroBrighffield, Colchester, Vt., USA) attached to an E800 Nikon microscope (Nikon Canada Inc., Mississauga, ON, Canada). After delineation of the SNc at low magnification (4× objective), a point grid was overlaid onto each section. […]

Take `NCCSSCCN` [cystamine, Cystamine]: for the setting “10 mg/kg daily for 6 weeks from 3 weeks post-lesion”, the “restoration of DA content in the lesioned striatum” value is listed as “did not significantly restore DA content”. Moreover, for the setting “10 mg/kg daily for 6 weeks from 3 weeks post-lesion, 6 and 9 weeks post-lesion”, the “cylinder test, limb-use asymmetry (percentage of contralateral contacts)” value was “asymmetry was not visible”. Besides, the apomorphine-induced contralateral rotations entry (10 mg/kg daily for 6 weeks from 3 weeks post-lesion, 6 and 9 weeks post-surgery) is reported as “significantly attenuated by the cystamine treatment”. The “decrease of striatal DA levels measured by HPLC” value (6-OHDA lesioned mice, 10 mg/kg daily for 6 weeks from 3 weeks post-lesion) is recorded as 84%. Moreover, the “decrease in the total number of TH-positive neurons in the SNpc” value (6-OHDA+cystamine vs sham+cystamine, 10 mg/kg daily for 6 weeks from 3 weeks post-lesion) came out at 65%. For the same molecule, for the setting “vs 6-OHDA mice treated with saline”, the DA turnover entry is given as “strong tendency to normalise the DA turnover”.

For the origin of these results see US20140073694A1, “CYSTAMINE ANALOGUES FOR THE TREATMENT OF PARKINSON'S DISEASE” (UNIVERSITE LAVAL, priority 2011, published 2014).
